This note sets out measurements from patent publication US20200405696A1, “INHIBITORS OF INDOLEAMINE 2,3-DIOXYGENASE AND/OR TRYPTOPHAN 2,3-DIOXYGENASE” (IDORSIA PHARMACEUTICALS LTD, priority 2018, published 2020).

Assay [1] concerns the target T1, Recombinant human TDO comprising amino acids 19-407 (Homo sapiens, UniProt P48775).
T1 construct: Recombinant human TDO comprising amino acids 19-407 with a N-terminal hexahistidine tag; hexahistidine (His6) (N); made in house; host or cells: E. coli
The experiment in a line: TDO2 enzymatic assay (NFK quantified by LCMS). Format: biochemical. To be noted: 15 nM enzyme, 200 μM L-tryptophan, pH7, 30 minutes pre-incubation at RT; mean values when measured multiple times; read-out: hTDO activity (IC50 in nM). In short, it runs like this: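 NFK formed over 30 min at RT from 200 μM L-tryptophan was measured by LCMS, normalized to d5-tryptophan, after compound (0.5 nM–10 μM, duplicates, 0.6% DMSO) was preincubated 30 min with 15 nM recombinant His-tagged TDO 19-407 in phosphate buffer pH 7. IC50 from four-parameter logistic fit; repeats averaged.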

Assay [2] deals with T2, Recombinant full-length human IDO1 (Homo sapiens, UniProt P14902).
T2 construct: Recombinant full-length human IDO1 with a N-terminal hexahistidine tag; hexahistidine (His6) (N); made in house; host or cells: E. coli
The assay is described as follows: IDO1 enzymatic assay (NFK quantified by LCMS). Format: biochemical. To be noted: 2 nM enzyme, 5 μM L-tryptophan, pH6.5, 30 minutes pre-incubation at RT; mean values when measured multiple times; read-out: hIDO activity (IC50 in nM). In short, it runs like this:
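IC50 comes from four-parameter logistic fits of duplicate data, with NFK quantified by LCMS and normalized to L-Trp-(indole-d5). Compound (0.5 nM–10 μM) was preincubated 30 min at RT with 2 nM E. coli-expressed IDO1 before a 30 min reaction with 5 μM tryptophan in pH 6.5 buffer containing ascorbate and methylene blue.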

T2 sequence (P14902 whole entry): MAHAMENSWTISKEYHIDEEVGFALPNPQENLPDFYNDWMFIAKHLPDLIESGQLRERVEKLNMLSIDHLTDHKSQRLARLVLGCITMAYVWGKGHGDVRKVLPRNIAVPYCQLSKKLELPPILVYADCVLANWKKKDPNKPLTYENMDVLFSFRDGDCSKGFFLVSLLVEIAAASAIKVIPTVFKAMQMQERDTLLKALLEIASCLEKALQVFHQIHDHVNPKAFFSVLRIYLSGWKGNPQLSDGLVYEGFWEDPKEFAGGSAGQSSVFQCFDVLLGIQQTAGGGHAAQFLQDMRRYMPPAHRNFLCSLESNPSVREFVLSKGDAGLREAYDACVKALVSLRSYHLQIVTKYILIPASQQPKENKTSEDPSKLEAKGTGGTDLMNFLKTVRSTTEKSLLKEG
T1 sequence (P48775 19-406 limits assumed): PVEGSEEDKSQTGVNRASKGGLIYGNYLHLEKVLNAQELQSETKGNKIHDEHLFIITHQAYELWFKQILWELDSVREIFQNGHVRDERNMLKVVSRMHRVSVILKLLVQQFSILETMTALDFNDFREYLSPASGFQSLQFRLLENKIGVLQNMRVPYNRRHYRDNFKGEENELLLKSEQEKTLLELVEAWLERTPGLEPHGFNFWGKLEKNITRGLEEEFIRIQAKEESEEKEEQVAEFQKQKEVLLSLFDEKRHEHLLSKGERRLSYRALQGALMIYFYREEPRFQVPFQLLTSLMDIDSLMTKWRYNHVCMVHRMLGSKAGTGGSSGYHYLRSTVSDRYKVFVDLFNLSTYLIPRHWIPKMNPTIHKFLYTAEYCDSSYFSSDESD

On to `N#Cc1cccc(-n2cc([C@H](O)c3c(C4CC4)sc4cncn34)nn2)c1` [Example 18a, 3-{4-[(R)-(2-Cyclopropyl-imidazo[5,1-b]thiazol-3-yl)-hydroxy-methyl]-[1,2,3]triazol-1-yl}-benzonitrile], for which the IC50 is over 10200 nM in assay [1] and 13.5 nM in assay [2].
Take `O=C(NCc1ccco1)c1ccc(-n2cc(C(O)c3c(C4CC4)sc4cncn34)nn2)cc1` (racemic) [Example 190, rac-4-{4-[(2-Cyclopropyl-imidazo[5,1-b]thiazol-3-yl)-hydroxy-methyl]-[1,2,3]triazol-1-yl}-N-furan-2-ylmethyl-benzamide]: the IC50 in assay [1] is over 10200 nM; in assay [2], 8.8 nM.
The corresponding values for `CCc1sc2cncn2c1C(O)c1cn(-c2cncc3ccccc23)nn1` (racemic) [Example 52, rac-(2-Ethyl-imidazo[5,1-b]thiazol-3-yl)-(1-isoquinolin-4-yl-1H-[1,2,3]triazol-4-yl)-methanol] are 5060 nM and 41.8 nM.
Regarding `Cn1cc(-n2cc(C(O)c3c(C4CC4)sc4cncn34)nn2)cn1` (racemic) [Example 43, rac-(2-Cyclopropyl-imidazo[5,1-b]thiazol-3-yl)-[1-(1-methyl-1H-pyrazol-4-yl)-1H-[1,2,3]triazol-4-yl]-methanol], the IC50 in assay [1] was over 10200 nM; in assay [2], 95 nM.
On the same counts, the results for `COC(=O)c1ccc(Cn2cc(C(O)c3c(C4CC4)sc4cncn34)nn2)cc1` (racemic) [Example 297, rac-4-{4-[(2-Cyclopropyl-imidazo[5,1-b]thiazol-3-yl)-hydroxy-methyl]-[1,2,3]triazol-1-ylmethyl}-benzoic acid methyl ester] are over 10200 nM and 16 nM.
Turning to `CCc1sc2cncn2c1C(O)c1cn(-c2ccc(NC(=O)OC(C)(C)C)cc2F)nn1` (racemic) [Example 245, rac-(4-{4-[(2-Ethyl-imidazo[5,1-b]thiazol-3-yl)-hydroxy-methyl]-[1,2,3]triazol-1-yl}-3-fluoro-phenyl)-carbamic Acid Tert-Butyl Ester], the IC50 was determined as 6810 nM in assay [1] and 40.8 nM in assay [2].
The corresponding values for `COc1ccc(-n2cc(C(O)c3c(C4(F)CC4)sc4cncn34)nn2)cc1` (racemic) [Example 92, rac-[2-(1-Fluoro-cyclopropyl)-imidazo[5,1-b]thiazol-3-yl]-[1-(4-methoxy-phenyl)-1H-[1,2,3]triazol-4-yl]-methanol] are over 10200 nM and 32.7 nM.
On the same counts, the results for `CCc1cc(-n2cc(C(O)c3c(C4CC4)sc4cncn34)nn2)ccc1O` (racemic) [Example 232, rac-4-{4-[(2-Cyclopropyl-imidazo[5,1-b]thiazol-3-yl)-hydroxy-methyl]-[1,2,3]triazol-1-yl}-2-ethyl-phenol] are over 10200 nM and 40.1 nM.
On the same counts, the results for `OC(c1cn(-c2ccc(OCC3CC3)c(Cl)c2)nn1)c1c(-c2ccccc2)sc2cncn12` (racemic) [Example 265, rac-[1-(3-Chloro-4-cyclopropylmethoxy-phenyl)-1H-[1,2,3]triazol-4-yl]-(2-phenyl-imidazo[5,1-b]thiazol-3-yl)-methanol] are over 10200 nM and 442 nM.
For `OC(c1cn(-c2ccc(N3CCOCC3)cc2)nn1)c1c(C2CC2)sc2cncn12` (racemic) [Example 38, rac-(2-Cyclopropyl-imidazo[5,1-b]thiazol-3-yl)-[1-(4-morpholin-4-yl-phenyl)-1H-[1,2,3]triazol-4-yl]-methanol], the IC50 is over 10200 nM in assay [1] and 72.7 nM in assay [2].
The corresponding values for `COc1ccc(-n2cc(C(O)c3c(-c4ccccc4F)sc4cncn34)nn2)cc1` (racemic) [Example 287, rac-[2-(2-Fluoro-phenyl)-imidazo[5,1-b]thiazol-3-yl]-[1-(4-methoxy-phenyl)-1H-[1,2,3]triazol-4-yl]-methanol] are 8670 nM and 88.8 nM.
For `COc1cccc(-c2ccc(C(O)c3c(C4CC4)sc4cncn34)s2)c1` (racemic) [Example 167, rac-(2-Cyclopropyl-imidazo[5,1-b]thiazol-3-yl)-[5-(3-methoxy-phenyl)-thiophen-2-yl]-methanol], the IC50 in assay [1] was over 10200 nM; in assay [2], 639 nM.
As for `CC(=O)Nc1ccc(-n2cc(C(O)c3c(C4CC4)sc4cncn34)nn2)cc1` (racemic) [Example 95, rac-N-(4-{4-[(2-Cyclopropyl-imidazo[5,1-b]thiazol-3-yl)-hydroxy-methyl]-[1,2,3]triazol-1-yl}-phenyl)-acetamide], the IC50 was over 10200 nM in assay [1] and 18.3 nM in assay [2].
For `O=C(c1ccc(-n2cc(C(O)c3c(C4CC4)sc4cncn34)nn2)cc1)N1CCOCC1` (racemic) [Example 103, rac-(4-{4-[(2-Cyclopropyl-imidazo[5,1-b]thiazol-3-yl)-hydroxy-methyl]-[1,2,3]triazol-1-yl}-phenyl)-morpholin-4-yl-methanone], the half-maximal inhibitory concentration (IC50) in assay [1] is over 10200 nM; in assay [2], 78.1 nM.
The corresponding values for `Cc1sc2cncn2c1C(O)c1cn(-c2ccc(N3CCOCC3)cc2)nn1` (racemic) [Example 56, rac-(2-Methyl-imidazo[5,1-b]thiazol-3-yl)-[1-(4-morpholin-4-yl-phenyl)-1H-[1,2,3]triazol-4-yl]-methanol] are over 10200 nM and 422 nM.
The corresponding values for `CCc1sc2cncn2c1C(O)c1cn(-c2ccc(NC(=O)OC(C)(C)C)cc2)nn1` (racemic) [Example 234, rac-(4-{4-[(2-Ethyl-imidazo[5,1-b]thiazol-3-yl)-hydroxy-methyl]-[1,2,3]triazol-1-yl}-phenyl)-carbamic Acid Tert-Butyl Ester] are 7940 nM and 36.7 nM.
In the case of `COc1ccc(-n2nnc(C(O)c3c(C4CC4)sc4cncn34)c2F)cc1` (racemic) [Example 336, rac-(2-Cyclopropyl-imidazo[5,1-b]thiazol-3-yl)-[5-fluoro-1-(4-methoxy-phenyl)-1H-[1,2,3]triazol-4-yl]-methanol], the IC50 in assay [1] was over 10200 nM; in assay [2], 32.7 nM.
Turning to `CC(C)(O)CCOc1ccc(-n2cc(C(O)c3c(C(C)(F)F)sc4cncn34)nn2)cc1Cl` (racemic) [Example 307, rac-4-[2-Chloro-4-(4-{[2-(1,1-difluoro-ethyl)-imidazo[5,1-b]thiazol-3-yl]-hydroxy-methyl}-[1,2,3]triazol-1-yl)-phenoxy]-2-methyl-butan-2-ol], the IC50 in assay [1] is over 10200 nM; in assay [2], 13.9 nM.
On the same counts, the results for `Cc1c(C(O)c2c(C3CC3)sc3cncn23)nnn1-c1ccccc1` (racemic) [Example 101, rac-(2-Cyclopropyl-imidazo[5,1-b]thiazol-3-yl)-(5-methyl-1-phenyl-1H-[1,2,3]triazol-4-yl)-methanol] are 7150 nM and 17 nM.
Consider `Cc1sc2cncn2c1C(O)c1cnn(-c2ccccc2)c1C` (racemic) [Example 98, rac-(2-Methyl-imidazo[5,1-b]thiazol-3-yl)-(5-methyl-1-phenyl-1H-pyrazol-4-yl)-methanol], for which the IC50 in assay [1] stood at 864 nM; in assay [2], 186 nM.
For the compound `N#Cc1ccc(-c2ccc(C(O)c3c(C4CC4)sc4cncn34)s2)cc1` (racemic) [Example 173, rac-4-{5-[(2-Cyclopropyl-imidazo[5,1-b]thiazol-3-yl)-hydroxy-methyl]-thiophen-2-yl}-benzonitrile], the IC50 in assay [1] is over 10200 nM; in assay [2], 732 nM.

A word on the IC50: it is the concentration needed to halve the response being measured.
